For data set [1], the system named is Human immunodeficiency virus 1. The data set can be described thus: Effective concentration of the compound to inhibit the replication of human immunodeficiency virus type 1. The format is functional, organism-based.
Data set [2] has as its system Human immunodeficiency virus 1. Nature of the data set: Effective concentration against human immunodeficiency virus type 1 strains; (0.3-0.5 nM). The format is functional, organism-based.
Data set [3] concerns Cell line. The data set can be described thus: Mean decrease in viral load in humans after administration of 100 mg twice a day; expressed as log10 reduction. The format is functional, Homo sapiens.
Data set [4] has as its target C-C chemokine receptor type 5 (Homo sapiens) (UniProt P51681).
Description: Inhibitory concentration against human immunodeficiency virus isolates utilizing C-C chemokine receptor type 5 for cell entry
Data set [5] relates to Cell line. The data set can be described thus: Mean decrease in viral load in humans after administration of 25 mg once a day; expressed as log 10 reduction. The format is functional, Homo sapiens.
For data set [6], the system named is Human immunodeficiency virus 1. Nature of the data set: Inhibitory concentration to inhibit HIV-1 mediated cell to cell fusion. The format is functional, organism-based.
Data set [7] in a line: Inhibitory concentration to inhibit cell to cell fusion based on C14 linkmid (a short constrained peptide). In kind it is functional.
For data set [8], the system named is Cell line. The data set can be described thus: Reduction of viral load after administration at 25 mg, twice daily for 10 days with antiretrovirals; expressed as log10 reduction; (0.5-1 ). The format is functional, Homo sapiens.
Data set [9] has as its system Human immunodeficiency virus 1. Nature of the data set: Cytotoxic concentration of the compound to inhibit HIV 1 replication. In kind it is functional.
For data set [10], the system named is Human immunodeficiency virus 1. The data set can be described thus: Effective concentration of the compound to inhibit human immunodeficiency virus type 1 replication. In kind it is functional, organism-based.
Data set [11] concerns Human immunodeficiency virus 1. Nature of the data set: Fold reduction in plasma HIV RNAafter intravenous administration of 100 mg twice daily (1.5-2.0). In kind it is functional.
Data set [12] deals with Cell line. The data set can be described thus: Reduction of viral load after oral administration at 100 mg for 8 weeks; expressed as log10 reduction. The format is functional, Homo sapiens.
A short description of data set [13]: Oral bioavailability in monkeys. The format is ADME, organism-based. As to conditions: cercopithecidae, in vivo, read-out: Bioavailabiility.
Data set [14] deals with Human immunodeficiency virus 1. Nature of the data set: (§1) Effective concentration to inhibit the replication of HIV-1 R5 strain. The format is functional.
The test system of data set [15] is Human immunodeficiency virus 1. The data set is described as §1. The format is functional, organism-based.
Data set [16] in a line: Oral bioavailability in fasted rats. In kind it is ADME, organism-based. The following applies: rat, in vivo, read-out: Bioavailabiility.
The subject of data set [17] is Human immunodeficiency virus 1. The data set can be described thus: Selectivity index against human immunodeficiency virus type 1. The format is functional.
The subject of data set [18] is Human immunodeficiency virus 1. The data set can be described thus: Effective concentration of the compound against human immunodeficiency virus type 1. In kind it is functional, organism-based.

From ChEMBL document CHEMBL1142687, “New approaches toward anti-HIV chemotherapy” (J Med Chem, 2005) come the findings set out here.

≈ marks a conversion by molar mass, not a printed value.

Chain of C-C chemokine receptor type 5 (Homo sapiens) (P51681 whole entry, looked up): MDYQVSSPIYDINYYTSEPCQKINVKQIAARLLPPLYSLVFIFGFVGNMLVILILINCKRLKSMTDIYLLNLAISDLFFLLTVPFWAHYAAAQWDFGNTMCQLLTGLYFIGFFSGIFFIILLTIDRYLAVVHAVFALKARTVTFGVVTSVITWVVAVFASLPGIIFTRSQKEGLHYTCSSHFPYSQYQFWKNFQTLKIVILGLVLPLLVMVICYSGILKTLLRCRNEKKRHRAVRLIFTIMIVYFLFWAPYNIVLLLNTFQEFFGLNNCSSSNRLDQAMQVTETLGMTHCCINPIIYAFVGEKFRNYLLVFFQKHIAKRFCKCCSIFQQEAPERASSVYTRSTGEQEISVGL

In general, EC50 refers to the midpoint of the concentration-response curve. High values mean weaker potency, low ones greater potency. In data set [1], `O=[N+]([O-])c1ccc(C2c3c(O)nc(S)nc3Oc3nc(S)nc(O)c32)cc1` yielded an EC50 of 8900 nM.

With `COc1ccc(S(=O)(=O)N(CC(C)C)C[C@@H](O)[C@H](Cc2ccccc2)NC(=O)O[C@H]2CO[C@H]3OCC[C@H]32)cc1`, the EC50 in data set [2] amounted to 0.5 nM.

One may read the IC90 as the point of the concentration-response curve where the effect stands at 90%. A lower IC90 goes with greater potency. In the case of `Cc1nnc(C(C)C)n1[C@H]1CC2CC[C@@H](C1)N2CC[C@H](NC(=O)C1CCC(F)(F)CC1)c1ccccc1` (single isomer, unassigned) [MARAVIROC], the Activity was determined as 1.42 with Cell line [3] and 0.42 in the data set on Cell line [5]. In addition, the IC90 in [4] was less than 10 nM.

By IC50 is commonly meant the concentration needed to halve the response being measured. Low values mean inhibition by little substance, high ones a need for much substance. As to `CC(C)Cc1cc(-c2ccc(-c3ccc(CCC(=O)O)cc3CC(C)C)cc2C(C)C)ccc1OCC(=O)O`, the IC50 in [6] was roughly 15 µg/mL (≈ 28.3 µM); in data set [7], 35000 nM.

Turning to `COC[C@@H](c1ccc(C(F)(F)F)cc1)N1CCN(C2(C)CCN(C(=O)c3c(C)ncnc3C)CC2)C[C@@H]1C` [VICRIVIROC], in the data set on Cell line [8], the Reduction came out at 1.

By CC50 is commonly meant the concentration giving 50% cytotoxicity. The molecule `O=C(/C=C(\O)c1ccc(Cc2ccc(F)cc2)o1)c1nc[nH]n1` showed a half-maximal cytotoxic concentration (CC50) in [9] of 110000 nM. In data set [10], this molecule came in with an EC50 of 140 nM.

For the molecule enfuvirtide, in data set [11], the Reduction is on record as 2.

On to `O=C1Nc2ccc(Cl)cc2[C@@](/C=C/C2CC2)(C(F)(F)F)N1`, for which the Reduction in the data set with Cell line [12] is 1.28.

Usually EC90 stands for the point of the concentration-response curve where the effect stands at 90%. Turning to `CC(=O)N1CCC(C(=O)N(CCCN2CCC(Cc3ccc(C(N)=O)cc3)CC2)c2ccc(C)c(Cl)c2)CC1`, the values for the bioavailability in data set [13] and in data set [16] were 28.5% and 9.5%, respectively. Also, in data set [14], the EC90 stood at 13 nM. The molecule further yielded a concentration giving a half-maximal response (EC50) in [15] of 1.1 nM.

As for `Cc1ccc(C)c(CSc2c(Cl)ccc[n+]2[O-])c1`, in [17], the SI is roughly 760. In data set [18], the EC50 was 0.05 µg/mL (≈ 0.179 µM).
